These results are taken from ChEMBL document CHEMBL1143186, “Total synthesis and evaluation of [18F]MHMZ” (Bioorg Med Chem Lett, 2008).

For series [1], the target named is 5-hydroxytryptamine receptor 2A (Rattus norvegicus, UniProt P14842). The experiment in a line: Displacement of [3H]MDL from rat 5HT2A receptor expressed in GF62 cells. It counts as cell-based. On the technique in general: Loss of bound radioactivity is the signal in a displacement assay; it reports binding, not function.
Series [2] relates to Nucleic Acid. The experiment in a line: Ratio of drug level in laminae 1-4 region to cerebellum in rat. It counts as ADME, tissue-based. As to conditions: in vivo.
Series [3] can be described thus: Metabolic stability in rat plasma assessed as unmetabolized fraction after 5 mins. Particulars: read-out: Stability. The series is classed as ADME, cell-free.
Series [4] deals with Nucleic Acid. The experiment in a line: Ratio of drug level in laminae 6a + 6b region to cerebellum in rat. It counts as ADME, tissue-based. Particulars: in vitro.
Series [5] is described as follows: Metabolic stability in rat plasma assessed as unmetabolized fraction after 60 mins. The series is classed as ADME, cell-free. As to conditions: read-out: Stability.
Series [6] concerns Brain. The experiment in a line: Drug level in rat brain lamina 5 region. Particulars: in vivo. The series is classed as ADME, tissue-based.
The subject of series [7] is Nucleic Acid. The experiment in a line: Ratio of drug level in caudate-putamen to cerebellum in rat. It counts as ADME, tissue-based. Particulars: in vitro.
The nature of series [8]: Metabolic stability in rat plasma assessed as unmetabolized fraction after 30 mins. The series is classed as ADME, cell-free. As to conditions: read-out: Stability.
In series [9] the test system is Nucleic Acid. The experiment in a line: Ratio of drug level in lamina 5 region to cerebellum in rat. The series is classed as ADME, tissue-based. Particulars: in vivo.
Series [10] has as its system Brain. The experiment in a line: Drug level in rat brain laminae 1-4 region. It counts as ADME, tissue-based. Particulars: in vivo.
Series [11] can be described thus: Metabolic stability in rat plasma assessed as unmetabolized fraction after 10 mins. It counts as ADME, cell-free. Particulars: read-out: Stability.
The subject of the next series is Laminae. The experiment in a line: Drug level in rat brain laminae 6a + 6b region. It counts as ADME, tissue-based. Particulars: in vivo.
Another series deals with Caudate-putamen. The experiment in a line: Drug level in rat brain caudate-putamen. It counts as ADME, tissue-based. Particulars: in vivo.
The target of series [12] is 5-hydroxytryptamine receptor 2A (Homo sapiens, UniProt P28223). The experiment in a line: Binding affinity to 5HT2A receptor.
Chain of 5-hydroxytryptamine receptor 2A (Homo sapiens, UniProt P28223) (P28223 whole entry): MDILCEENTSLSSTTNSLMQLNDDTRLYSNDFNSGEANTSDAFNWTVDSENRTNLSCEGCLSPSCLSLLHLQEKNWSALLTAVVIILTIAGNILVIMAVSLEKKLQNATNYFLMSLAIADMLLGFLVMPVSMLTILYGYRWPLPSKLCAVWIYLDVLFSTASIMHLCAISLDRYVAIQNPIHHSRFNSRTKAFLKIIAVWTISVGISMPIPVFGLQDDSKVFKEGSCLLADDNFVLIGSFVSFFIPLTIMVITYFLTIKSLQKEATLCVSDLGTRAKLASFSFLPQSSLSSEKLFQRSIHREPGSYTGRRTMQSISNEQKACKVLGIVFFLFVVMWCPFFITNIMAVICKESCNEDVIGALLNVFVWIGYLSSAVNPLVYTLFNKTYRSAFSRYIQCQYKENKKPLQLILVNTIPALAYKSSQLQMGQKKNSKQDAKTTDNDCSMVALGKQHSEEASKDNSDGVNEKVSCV

Chain of 5-hydroxytryptamine receptor 2A (Rattus norvegicus, UniProt P14842) (P14842 whole entry): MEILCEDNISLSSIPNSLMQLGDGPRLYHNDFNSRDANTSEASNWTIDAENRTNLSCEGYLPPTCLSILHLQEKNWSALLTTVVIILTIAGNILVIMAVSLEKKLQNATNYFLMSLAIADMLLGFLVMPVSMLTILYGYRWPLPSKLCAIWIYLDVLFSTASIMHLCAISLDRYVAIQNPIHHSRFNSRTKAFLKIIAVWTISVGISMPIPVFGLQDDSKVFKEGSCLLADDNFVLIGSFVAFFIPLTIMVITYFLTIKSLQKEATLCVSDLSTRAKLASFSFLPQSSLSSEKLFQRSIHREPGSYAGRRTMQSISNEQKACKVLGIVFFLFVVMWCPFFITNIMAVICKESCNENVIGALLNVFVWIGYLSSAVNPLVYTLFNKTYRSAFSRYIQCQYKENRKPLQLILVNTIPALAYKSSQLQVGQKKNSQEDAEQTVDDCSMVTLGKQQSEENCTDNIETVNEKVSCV

On to `COc1c(OCCF)cccc1C(O)C1CCN(CCc2ccc(F)cc2)CC1` (stereo not given), for which, in series [1], the Ki came to 9 nM.

Consider `COc1c(OCC[18F])cccc1C(O)C1CCN(CCc2ccc(F)cc2)CC1` (stereo not given), for which the Ratio in the series on Nucleic Acid [2] turned out to be 26.9; in the series on Nucleic Acid [4], 31.4; in the series on Nucleic Acid [7] it was 19.2; in the series on Nucleic Acid [9], 59.5. Further, the remaining at 5 min in [3] came out at 43%. The remaining at 1 h in series [5] was found to be 7%. In addition, the Drug uptake in the series on Brain [6] is 51.6 pmol/mm3; in the series with Brain [10], 23.3 pmol/mm3; in the series with Laminae it was 27.27 pmol/mm3; in the series with Caudate-putamen, 16.8 pmol/mm3. Moreover, the remaining at 0.5 h in [8] came to 16%. The remaining at 10 min in series [11] amounted to 32%.

Take `O=C(c1ccc(F)cc1)C1CCN(CCn2c(=S)[nH]c3ccccc3c2=O)CC1` [ALTANSERIN]: the Ki in series [1] amounted to 0.74 nM; in series [12], 0.13 nM.

As a reminder, the Ki is a dissociation constant, usually derived from enzyme kinetics or from competition with a known ligand. High values mean lower affinity, low ones higher affinity.
